Data on six substances can be found in patent US20250325676A1, “CAMPTOTHECIN PRODRUG AND PHARMACEUTICAL COMPOSITION THEREOF” (TIANJIN HEMAY ONCOLOGY PHARMACEUTICAL CO., LTD, priority 2022, published 2025).

One assay has as its system MDA-MB-468. The assay can be described thus: In vitro inhibition of human tumor cells, MDA-MB-468, SRB method.
The subject of assay [1] is human colon cancer HCT116. To be noted: 30 mg/kg i.v. qw × 2; HCT116 large tumor after irinotecan. From the text: When the tumor volume was more than 600 mm^3 and stable growth was maintained, the experimental animals were randomly divided by the remainder method and administered according to the size of the tumor volume. […] The subcutaneous tumors were stripped and weighed.
T was the subject and C is the model control.
Tumor volume growth was observed on a regular basis after completion of dosing.

The next assay deals with NCI-N87. In words: In vitro inhibition of human tumor cells, NCI-N87, MTT method. It counts as cell-based.
The next assay concerns NCI-H460. In words: In vitro inhibition of human tumor cells, NCI-H460, MTT method. It counts as cell-based. As to the method: (§1) The cells were allowed to adhere overnight.
(§2) Adherent cells: Culture medium was aspirated and 100 μl/wells of basal culture (generally refers to medium without fetal bovine serum (FBS) and other additives) containing 0.5 mg/ml MTT were added. The cells were cultured for 3 hours. MTT-containing basal medium was aspirated and 100 μl/wells of DMSO were added to dissolve formazan.
(§3) Unstably adherent cells: Unstably adherent cells were directly added to the MTT solution to achieve the concentration of 0.5 mg/ml and cultured for 3 hours. The ternary solution in an equal volume to the system was added to the system to dissolve the formazan.
(§4) The DMSO concentration was 0.1%.

The next assay concerns HCT116. In words: In vitro inhibition of human tumor cells, HCT116, MTT method. It is filed as cell-based. On the procedure: as §1, §2, §3, §4
On the technique in general: Formazan colour is commonly taken as a measure of viable cells.

A further assay has as its system LoVo. The assay can be described thus: In vitro inhibition of human tumor cells, LoVo, SRB method. It is filed as cell-based.
From the text: as §1
(§5) Trichloroacetic acid was removed. […] Excess SRB was removed.
as §4
In general terms: The SRB assay estimates cell density from bound dye.

A further assay deals with SW620. The assay can be described thus: In vitro inhibition of human tumor cells, SW620, SRB method. It is filed as cell-based.
From the text: as §1, §5, §4

In a further assay the test system is BxPC-3. In words: In vitro inhibition of human tumor cells, BxPC-3, MTT method. It is filed as cell-based. As to the method: as §1, §2, §3, §4
Assay [2] concerns human small cell lung cancer NCI-H446. To be noted: 20 mg/kg i.v. qw × 2; NCI-H446 model.
Procedure: An allogeneic transplantation model of human small cell lung cancer NCI-H446 was established in nude mice subcutaneously using a tumor block inoculation method. When the tumor volume of the allogeneic transplantation was about 100 to 300 mm^3 and remained stable, the experimental animals were randomly divided into groups according to the size of the tumor volume (day 0, i.e., d0) using a remainder method. The tumor volume was measured 2 to 3 times a week. At the end of the dosage period, the experimental animals were sacrificed. The subcutaneous tumors were peeled and weighed. The anti-tumor activity of the drug against the model was evaluated based on tumor volume and tumor weight-related data.
The calculation formula of the tumor volume was: Volume=0.5×long diameter×short diameter×short diameter.
V0 was the resulting tumor volume measured at the time of dosing in groups (i.e., d0) and Vt was the tumor volume at each measurement.
T was the subject and C was the model control.
TRTV was the average RTV of the subject, and CRTV was the average RTV of the model control group.
Wn: average body weight of each group of experimental animals on day n, and W0: average body weight of each group of experimental animals on day 0.
Where [3] appears, read: No βGU (direct effects of compound on cells).

The IC50 is the concentration at which inhibition is half-maximal. The low end stands for inhibition by little substance, the high end for a need for much substance.

Procedure for MDA-MB-468: 1.1.2 Cell culture method: Cells were cultured in complete medium, 37° C., 5% CO2, saturated humidity to log growth phase (adherent cells generally attended to complete fusion), and cells were collected for subsequent experiments (adherent cells were first digested with trypsin/ethylene diamine tetraacetic acid (EDTA) to remove adherent).
1.1.3 96-well cell culture plates (hereinafter referred to as 96-well plates) were inoculated with a certain number of cells (see Table 1 for details). The cells were allowed to adhere overnight. […] Finally, the total amount of cell protein in the assay wells was determined by the SRB method, or the cell viability was determined by the MTT method:
The culture medium was aspirated from the wells and the cells were fixed for 1 hour or more by adding 10% trichloroacetic acid. Trichloroacetic acid was removed. The resultant was washed with H2O and stained with 0.4% SRB for 15 to 30 minutes. Excess SRB was removed. The resultant was washed with 1% acetic acid. The protein-bound SRB was dissolved by adding 10 mM of 100 μl Tris (trishydroxymethylaminomethane). Tests were carried out at the wavelength of 570 nm.
1.1.4 dilution and addition of β-glucuronidase: 1 to 2 mg of β-glucuronidase was weighed and dissolved in PBS to give a 2 mg/ml of stock solution. […] 80 μl of enzyme working solution was added to the enzyme-containing assay wells. The amount of β-glucuronidase was 1 μg/wells. No enzyme-containing assay wells were added to the 80 μl of complete medium.
The assay wells were charged with 20 μl of 10× compound working solution. The final volume was 200 μl per well. The DMSO concentration was 0.1%.
1.1.6 Compound inhibition activity calculation: The test included a compound test group, a compound-free positive solvent control group (PC) and a compound-free negative solvent control group (NC). […] The average inhibition rate and the standard deviation (SD) were obtained from the repeated test wells. The average inhibition rate was plotted on the basis of the compound concentration as an abscissa and distributed in the form of logarithms. The curve was fitted to the Logistic 4 parameter equation. […] The test was generally repeated to obtain 3 valid results.

Take “(2S,3S,4S,5R,6S)-6-(3-((1-(2-(2-((4′-(E)-(8-amino-1-hydroxy-5,7-disulfonicnaphthalen-2-yl)diazenyl)-3,3′-dimethyl-[1,1′-biphenyl]-4-yl)amino)-3-oxopropoxy)ethyl)-1H-1,2,3-triazol-4-yl)methoxy)-4-((((S)-4,11-diethyl-4-hydroxy-3,14-dioxy-3,4,12,14-tetrahydro-1H-pyrano[3′,4′:6,7]indolazino[1,2-b]quinolin-9-yl)oxy)methyl)phenoxy)-3,4,5-trihydroxytetrahydro-2H-pyran-2-carboxylate trisodium [Example 101]”: in the assay on MDA-MB-468 (Adding βGU), inhibition was half-maximal at 11 nM (IC50). The same substance showed a concentration for half-maximal inhibition (IC50) in the assay on MDA-MB-468 (No βGU) of 372 nM. For the same substance, in assay [1], the “Relative volume RTV (X ± S.D.)” value stood at 0.90 ± 0.20; the “T/C (%)” value worked out at 24.2%; the “Tumor inhibition rate (%)” value is 81.6%; the “Tumor weight (g, X ± S.D.)” value worked out at 0.501 ± 0.081 g. This substance also came in with a half-inhibitory concentration (IC50) in the assay on NCI-N87 (Adding βGU) of 51 nM. Moreover, in the assay with NCI-N87 (No βGU), the IC50 was found to be 1240 nM.

Regarding “(2S,3S,4S,5R,6S)-6-(3-((1-(8-((4′-((E)-(8-amino-1-hydroxy-5,7-disulfonicnaphthalen-2-yl)diazenyl)-3,3′-dimethyl-[1,1′-biphenyl]-4-yl)amino)-8-oxooctyl)-1H-1,2,3-triazol-4-yl)methoxy)-4-((((S)-4,11-diethyl-4-hydroxy-3,14-dioxy-3,4,12,14-tetrahydro-1H-pyrano[3′,4′:6,7]indolazino[1,2-b]quinolin-9-yl)oxy)methyl)-2-methylphenoxy)-3,4,5-trihydroxytetrahydro-2H-pyran-2-carboxylate trisodium [Example 48]”, the concentration for half-maximal inhibition (IC50) was determined as 6.8 nM in the assay with NCI-H460 (Adding βGU); 419 nM in the assay on NCI-H460 (No βGU); 5.9 nM with HCT116 (Adding βGU (β-glucuronidase)); 119 nM with HCT116 (setting [3]); 28 nM in the assay with LoVo (Adding βGU); 372 nM in the assay with LoVo (No βGU). Moreover, the IC50 with MDA-MB-468 (Adding βGU) was found to be 7.3 nM; in the assay on MDA-MB-468 (No βGU), 94 nM; in the assay on NCI-N87 (Adding βGU), 52 nM; in the assay with NCI-N87 (No βGU) it was 1200 nM; with SW620 (Adding βGU), 10 nM; in the assay with SW620 (No βGU) it was 230 nM. In addition, the 50% inhibitory concentration (IC50) with BxPC-3 (Adding βGU) was found to be 28 nM; in the assay on BxPC-3 (No βGU) it was 432 nM.

Regarding “(2S,3S,4S,5R,6S)-6-(3-((1-(6-((4′-((E)-(8-amino-1-hydroxy-5,7-disulfonicnaphthalen-2-yl)diazenyl)-[1,1′-biphenyl]-4-yl)amino)-6-oxohexyl)-1H-1,2,3-triazol-4-yl)methoxy)-4-((((S)-4-ethyl-4-hydroxy-3,14-dioxo-3,4,12,14-tetrahydro-1H-pyrano[3′,4′:6,7]indolazino[1,2-b]quinolin-9-yl)oxy)methyl)phenoxy)-3,4,5-trihydroxytetrahydro-2H-pyran-2-carboxylate trisodium [Example 29]”, the IC50 in the assay on NCI-H460 (Adding βGU) turned out to be 30 nM; with HCT116 (Adding βGU (β-glucuronidase)), 17 nM; in the assay with HCT116 (setting [3]), 1350 nM; in the assay with LoVo (Adding βGU) it was 55 nM; in the assay with LoVo (No βGU), 1200 nM; with MDA-MB-468 (Adding βGU), 14 nM. Moreover, the 50% inhibitory concentration (IC50) with MDA-MB-468 (No βGU) stood at 788 nM; in the assay on NCI-N87 (Adding βGU), 64 nM; in the assay on SW620 (Adding βGU) it was 9.6 nM; with SW620 (No βGU) it was 350 nM; in the assay with BxPC-3 (Adding βGU), 38 nM; in the assay with BxPC-3 (No βGU), 916 nM. Moreover, the “inhibition rate at 2 μM” value with NCI-H460 (No βGU, 2 μM) was 2 μM about 43.9%; in the assay with NCI-N87 (No βGU), 2 μM about 31.0%.

As for “(2S,3S,4S,5R,6S)-6-(3-((1-(6-((4′-((E)-(8-amino-1-hydroxy-5,7-disulfonicnaphthalen-2-yl)diazenyl)-[1,1′-biphenyl]-4-yl)amino)-6-oxohexyl)-1H-1,2,3-triazol-4-yl)methoxy)-4-((((S)-4,11-diethyl-4-hydroxy-3,14-dioxo-3,4,12,14-tetrahydro-1H-pyrano[3′,4′:6,7]indolazino[1,7]quinolin-9-yl)oxy)methyl)-2-methylphenoxy)-3,4,5-trihydroxytetrahydro-2H-pyran-2-carboxylate trisodium [Example 18]”, the IC50 amounted to 7.6 nM in the assay on NCI-H460 (Adding βGU); 533 nM in the assay on NCI-H460 (No βGU); 6.5 nM in the assay with HCT116 (Adding βGU (β-glucuronidase)); 186 nM with HCT116 (setting [3]); 19 nM with LoVo (Adding βGU); 812 nM in the assay on LoVo (No βGU). The half-maximal inhibitory concentration (IC50) is 5.5 nM with MDA-MB-468 (Adding βGU); 110 nM with MDA-MB-468 (No βGU); 29 nM in the assay on NCI-N87 (Adding βGU); 6.8 nM with SW620 (Adding βGU); 204 nM with SW620 (No βGU); 17 nM with BxPC-3 (Adding βGU). The IC50 with BxPC-3 (No βGU) was determined as 1620 nM. For the same substance, the “inhibition rate at 2 μM” value in the assay with NCI-N87 (No βGU) came to 2 μM about 49.3%.

As to “(2S,3S,4S,5R,6S)-6-(3-((1-(6-((4′-((E)-(8-amino-1-hydroxy-5,7-disulfonicnaphthalen-2-yl)diazenyl)-3,3′-dimethoxy-[1,1′-biphenyl]-4-yl)amino)-6-oxohexyl)-1H-1,2,3-triazol-4-yl)methoxy)-4-(((S)-4-ethyl-4-hydroxy-3,14-dioxy-3,4,12,14-tetrahydro-1H-pyrano[3′,4′:6,7]indolazino[1,2-b]quinolin-9-yl)oxy)methyl)phenoxy)-3,4,5-trihydroxytetrahydro-2H-pyran-2-carboxylate trisodium [Example 31]”, the 50% inhibitory concentration (IC50) turned out to be 19 nM in the assay with NCI-H460 (Adding βGU); 540 nM with NCI-H460 (No βGU); 9.3 nM in the assay on HCT116 (Adding βGU (β-glucuronidase)); 339 nM in the assay with HCT116 (setting [3]); 32 nM in the assay with LoVo (Adding βGU); 699 nM in the assay with LoVo (No βGU). Also, the IC50 in the assay on MDA-MB-468 (Adding βGU) worked out at 11 nM; in the assay on MDA-MB-468 (No βGU), 329 nM; in the assay with NCI-N87 (Adding βGU) it was 62 nM; in the assay on NCI-N87 (No βGU) it was 1770 nM; in the assay on SW620 (Adding βGU), 10 nM; with SW620 (No βGU), 220 nM. For the same substance, the IC50 was 21 nM with BxPC-3 (Adding βGU) and 518 nM in the assay on BxPC-3 (No βGU).

Consider “(2S,3S,4S,5R,6S)-6-(3-((1-(6-((4′-((E)-(8-amino-1-hydroxy-5,7-disulfonicnaphthalen-2-yl)diazenyl)-3,3′-dimethyl-[1,1′-biphenyl]-4-yl)amino)-6-oxohexyl)-1H-1,2,3-triazol-4-yl)methoxy)-4-((((S)-4,11-diethyl-4-hydroxy-3,14-dioxy-3,4,12,14-tetrahydro-1H-pyrano[3′,4′:6,7]indolazino[1,2-b]quinolin-9-yl)oxy)methyl)2-methylphenoxy)-3,4,5-trihydroxytetrahydro-2H-pyran-2-carboxylate trisodium [Example 14]”, for which the IC50 with NCI-H460 (Adding βGU) was found to be 8.7 nM; in the assay on NCI-H460 (No βGU), 533 nM; with HCT116 (Adding βGU (β-glucuronidase)), 3.3 nM; in the assay on HCT116 (setting [3]), 175 nM; with LoVo (Adding βGU) it was 10 nM; with LoVo (No βGU), 204 nM. Also, the IC50 in the assay on MDA-MB-468 (Adding βGU) was determined as 4.4 nM; with MDA-MB-468 (No βGU) it was 106 nM; with NCI-N87 (Adding βGU), 26 nM; in the assay with NCI-N87 (No βGU), 1480 nM; in the assay with SW620 (Adding βGU), 6.3 nM; in the assay on SW620 (No βGU), 151 nM. Also, the values for the 50% inhibitory concentration (IC50) in the assay on BxPC-3 (Adding βGU) and in the assay on BxPC-3 (No βGU) were 16 nM and 406 nM, respectively. The “Relative volume RTV (X ± S.D.)” value in [2] is recorded as 0.69 ± 0.45. Also, in assay [2], the “T/C (%)” value is 10.2%. In [2], the “Tumor inhibition rate (%)” value came to 91.3%. In [2], the “Tumor weight (g, X ± S.D.)” value was determined as 0.085 ± 0.075 g.
